Experimental findings from PubChem BioAssay AID256 (DTP/NCI, 2004) are described below.

This assay relates to CD2F1 mice, L1210 leukemia ip, survival T/C. Description: NCI In Vivo Anticancer Drug Screen. Data for tumor model L1210 Leukemia (intraperitoneal) in CD2F1 (CDF1) mice. As to conditions: higher = longer survival. Put shortly: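 Read-out first: treated-group measurement over vehicle-control measurement, expressed as a ratio. Animals bore a transplanted tumor line and were dosed with compound or vehicle.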

The mark [1] stands for this setting: endpoint: mean survival time, dose: 100.0 mg/kg/injection, schedule: Q01DX009 (ip), vehicle: saline with Tween-80.
Where [2] appears, read: endpoint: mean survival time, dose: 200.0 mg/kg/injection, schedule: Q01DX009 (ip), vehicle: saline with Tween-80.
Setting [3] is: endpoint: mean survival time, dose: 400.0 mg/kg/injection, schedule: Q01DX009 (ip), vehicle: saline with Tween-80.
Setting [4] is: endpoint: mean survival time, dose: 100.0 mg/kg/injection, schedule: Q01DX001 (ip), vehicle: saline with Tween-80.
[5] abbreviates: endpoint: mean survival time, dose: 200.0 mg/kg/injection, schedule: Q01DX001 (ip), vehicle: saline with Tween-80.
[6] abbreviates: endpoint: mean survival time, dose: 400.0 mg/kg/injection, schedule: Q01DX001 (ip), vehicle: saline with Tween-80.
Where [7] appears, read: endpoint: mean survival time, dose: 100.0 mg/kg/injection, schedule: Q04DX003 (ip), vehicle: saline.
Setting [8] is: endpoint: mean survival time, dose: 100.0 mg/kg/injection, schedule: Q04DX003 (ip), vehicle: saline with Tween-80.
Setting [9] is: endpoint: mean survival time, dose: 200.0 mg/kg/injection, schedule: Q04DX003 (ip), vehicle: saline with Tween-80.
[10] abbreviates: endpoint: mean survival time, dose: 50.0 mg/kg/injection, schedule: Q01DX009 (ip), vehicle: Klucel (hydroxypropylcellulose) (HPC).
[11] abbreviates: endpoint: mean survival time, dose: 100.0 mg/kg/injection, schedule: Q01DX009 (ip), vehicle: Klucel (hydroxypropylcellulose) (HPC).
[12] abbreviates: endpoint: mean survival time, dose: 100.0 mg/kg/injection, schedule: Q01DX001 (ip), vehicle: saline.
The mark [13] stands for this setting: endpoint: mean survival time, dose: 200.0 mg/kg/injection, schedule: Q01DX001 (ip), vehicle: saline.
Setting [14] is: endpoint: mean survival time, dose: 400.0 mg/kg/injection, schedule: Q01DX001 (ip), vehicle: saline.
Setting [15] is: endpoint: mean survival time, dose: 400.0 mg/kg/injection, schedule: Q04DX003 (ip), vehicle: saline with Tween-80.

Several values for one entry are separate records, joined by “and”; a condition that tells them apart may be missing. Equal entries are not always repeated. Inconclusive results and toxic doses are left out.

In the case of `S=c1[nH]c2ccccc2[nH]c1=S`, the T/C reads like this: (endpoint: mean survival time, dose: 10.0 mg/kg/injection, schedule: Q01DX001 (ip), vehicle: Klucel (hydroxypropylcellulose) (HPC)) 103 % of control; (endpoint: mean survival time, dose: 20.0 mg/kg/injection, schedule: Q01DX001 (ip), vehicle: Klucel (hydroxypropylcellulose) (HPC)) 108 % of control.
For the molecule `COc1ccc(C(=O)NS(=O)(=O)c2ccc(C)cc2)cc1`, the T/C under setting [1] was 103 % of control, the T/C under setting [2] was 98 % of control and the T/C under setting [3] was 104 % of control.
In the case of `CC1(Br)CS(=O)(=O)CC1(C)Br` (stereo unspecified), the T/C by setting is: (endpoint: mean survival time, dose: 75.0 mg/kg/injection, schedule: Q01DX001 (ip), vehicle: saline with Tween-80) 104 % of control; (endpoint: mean survival time, dose: 150.0 mg/kg/injection, schedule: Q01DX001 (ip), vehicle: saline with Tween-80) 98 % of control; (endpoint: mean survival time, dose: 300.0 mg/kg/injection, schedule: Q01DX001 (ip), vehicle: saline with Tween-80) 101 % of control.
`Cc1ccc(-c2csc(/N=C/c3ccccc3O)n2)cc1`: the T/C by setting is: under setting [4], 89 % of control; under setting [5], 86 % of control; under setting [6], 86 % of control.
Turning to `O.O.[Cl][Pt+2][Cl].[NH-]C1CCCCC1[NH-]` (stereo unspecified), the T/C reads like this: (endpoint: mean survival time, dose: 2.5 mg/kg/injection, schedule: Q04DX003 (ip), vehicle: dextrose) 110 % of control; (endpoint: mean survival time, dose: 5.0 mg/kg/injection, schedule: Q04DX003 (ip), vehicle: dextrose) 113 % of control; (endpoint: mean survival time, dose: 80.0 mg/kg/injection, schedule: Q04DX003 (ip), vehicle: dextrose) 96 % of control; (endpoint: median survival time, dose: 1.25 mg/kg/injection, schedule: Q04DX003 (ip), vehicle: saline) 109 % of control; (endpoint: median survival time, dose: 2.5 mg/kg/injection, schedule: Q04DX003 (ip), vehicle: saline) 110 % of control; (endpoint: median survival time, dose: 4.0 mg/kg/injection, schedule: Q04DX003 (ip), vehicle: saline) 110 % of control [middle of 5 runs]. Also, the T/C is, setting by setting: (endpoint: median survival time, dose: 5.0 mg/kg/injection, schedule: Q04DX003 (ip), vehicle: saline) 119 % of control; (endpoint: median survival time, dose: 8.0 mg/kg/injection, schedule: Q04DX003 (ip), vehicle: saline) 120 % of control; (endpoint: median survival time, dose: 64.0 mg/kg/injection, schedule: Q04DX003 (ip), vehicle: saline) 98 % of control and 120 % of control and 124 % of control.
Consider `COc1ccc(C(=O)NC[n+]2ccccc2)cc1`, for which the T/C under setting [7] was 109 % of control.
For the molecule `NC(Cc1ccccc1)C(=O)OCN1C(=O)C2C3C=CC(C2C1=O)C1C2C(=O)N(COC(=O)C(N)Cc4ccccc4)C(=O)C2C31` (stereo unspecified), the T/C by setting is: (endpoint: median survival time, dose: 21.6 mg/kg/injection, schedule: Q01DX009 (ip), vehicle: water) 116 % of control; (endpoint: median survival time, dose: 36.0 mg/kg/injection, schedule: Q01DX009 (ip), vehicle: water) 117 % of control; (endpoint: median survival time, dose: 100.0 mg/kg/injection, schedule: Q01DX009 (ip), vehicle: water) 188 % of control.
In the case of `COC12C(COC(N)=O)C3=C(C(=O)C(C)=C(NC(C)C)C3=O)N1CC1NC12` (stereo unspecified), the T/C (endpoint: mean survival time, dose: 1.5 mg/kg/injection, schedule: Q01DX001 (ip), vehicle: water) is 96 % of control (2×) and 102 % of control; the T/C (endpoint: mean survival time, dose: 48.0 mg/kg/injection, schedule: Q01DX001 (ip), vehicle: water) was 87 % of control.
Regarding `CCC(CO)C(C)C` (stereo unspecified), the T/C was 97 % of control under setting [8] and 100 % of control under setting [9].
Turning to `O=C1O/C(=C2/OC(=O)c3ccccc32)c2ccccc21`, the T/C is 92 % of control (endpoint: mean survival time, dose: 50.0 mg/kg/injection, schedule: Q04DX002 (ip), vehicle: saline with Tween-80); 92 % of control (endpoint: mean survival time, dose: 100.0 mg/kg/injection, schedule: Q04DX002 (ip), vehicle: saline with Tween-80); 92 % of control (endpoint: mean survival time, dose: 200.0 mg/kg/injection, schedule: Q04DX002 (ip), vehicle: saline with Tween-80); 96 % of control (endpoint: mean survival time, dose: 400.0 mg/kg/injection, schedule: Q04DX002 (ip), vehicle: saline with Tween-80).
Regarding `OC1CCCC2CCC[N-]C12.OC1CCCC2CCC[N-]C12.[Mn+2]` (stereo unspecified), the T/C runs as follows: (endpoint: mean survival time, dose: 25.0 mg/kg/injection, schedule: Q01DX009 (ip), vehicle: Klucel (hydroxypropylcellulose) (HPC)) 104 % of control; under setting [10], 115 % of control; under setting [11], 104 % of control.
As to `OCC(O)C1OC(OCc2ccccc2)C(O)C(O)C1O` (stereo unspecified), the T/C under setting [12] was 101 % of control, the T/C under setting [13] was 98 % of control and the T/C under setting [14] is 98 % of control.
On to `CCCCCCCCC(C(=O)c1ccccc1)C(O)(C(F)(F)F)C(F)(F)F` (stereo unspecified), for which the T/C runs as follows: under setting [8], 102 % of control; under setting [9], 111 % of control; under setting [15], 102 % of control.
Turning to `Brc1ccc2c(c1)C(Br)c1ccccc1-2` (stereo unspecified), the T/C (endpoint: mean survival time, dose: 50.0 mg/kg/injection, schedule: Q01DX009 (ip), vehicle: saline with Tween-80) is 105 % of control; the T/C under setting [1] is 103 % of control; the T/C under setting [8] was 101 % of control; the T/C under setting [2] was 100 % of control; the T/C under setting [9] is 101 % of control.
As to `C[Si]1(C)N(c2ccccc2)[Si](C)(C)N(c2ccccc2)[Si](C)(C)N1c1ccccc1`, the T/C runs as follows: under setting [1], 105 % of control; under setting [8], 105 % of control; under setting [2], 107 % of control; under setting [9], 94 % of control; under setting [3], 106 % of control; under setting [15], 93 % of control.
In the case of `O=C(NO)c1ccncc1`, the T/C runs as follows: (endpoint: mean survival time, dose: 50.0 mg/kg/injection, schedule: Q01DX001 (ip), vehicle: saline) 106 % of control; under setting [12], 103 % of control; (endpoint: mean survival time, dose: 100.0 mg/kg/injection, schedule: Q01DX009 (ip), vehicle: saline) 102 % of control; under setting [7], 91 % of control; under setting [13], 110 % of control; (endpoint: mean survival time, dose: 200.0 mg/kg/injection, schedule: Q01DX009 (ip), vehicle: saline) 104 % of control. Besides, the T/C is, setting by setting: (endpoint: mean survival time, dose: 200.0 mg/kg/injection, schedule: Q04DX003 (ip), vehicle: saline) 94 % of control; under setting [14], 97 % of control; (endpoint: mean survival time, dose: 400.0 mg/kg/injection, schedule: Q01DX009 (ip), vehicle: saline) 107 % of control; (endpoint: mean survival time, dose: 400.0 mg/kg/injection, schedule: Q04DX003 (ip), vehicle: saline) 94 % of control.
Turning to `CC(C)N1C(=O)[N+](C)(C)N=C1[O-]`, the T/C is 103 % of control under setting [4]; 89 % of control under setting [1]; 101 % of control under setting [5]; 97 % of control under setting [2]; 104 % of control under setting [6]; 101 % of control under setting [3].
Regarding `COC(=O)N/N=C\c1ccc(O)c(OC)c1`, the T/C under setting [1] is 104 % of control, the T/C under setting [2] is 104 % of control and the T/C under setting [3] was 97 % of control.
On to `O=[N+]([O-])c1cnc(C2=C(O)c3ccccc3CC2)s1`, for which the T/C reads like this: (endpoint: mean survival time, dose: 25.0 mg/kg/injection, schedule: Q01DX001 (ip), vehicle: saline with Tween-80) 96 % of control; (endpoint: mean survival time, dose: 50.0 mg/kg/injection, schedule: Q01DX001 (ip), vehicle: saline with Tween-80) 96 % of control; under setting [4], 100 % of control.
As to `COC(=O)c1c(C(=O)OC)c(-c2ccc(Cl)c(Cl)c2)n2c1CCC2`, the T/C under setting [10] was 91 % of control; the T/C under setting [11] was 88 % of control; the T/C (endpoint: mean survival time, dose: 200.0 mg/kg/injection, schedule: Q01DX009 (ip), vehicle: Klucel (hydroxypropylcellulose) (HPC)) was 98 % of control.
As to `O=C1CN=C(c2ccccc2)O1`, the T/C runs as follows: (endpoint: median survival time, dose: 50.0 mg/kg/injection, schedule: Q04DX002 (ip), vehicle: saline with Tween-80) 100 % of control; (endpoint: median survival time, dose: 100.0 mg/kg/injection, schedule: Q04DX002 (ip), vehicle: saline with Tween-80) 100 % of control; (endpoint: median survival time, dose: 200.0 mg/kg/injection, schedule: Q04DX002 (ip), vehicle: saline with Tween-80) 111 % of control; (endpoint: median survival time, dose: 400.0 mg/kg/injection, schedule: Q04DX002 (ip), vehicle: saline with Tween-80) 100 % of control.
